Source: publication PMC11424460, “Inhibitory effects of calcium channel blockers nisoldipine and nimodipine on ivacaftor metabolism and their underlying mechanism” (Frontiers in Pharmacology, 2024)
“Also recorded” adds a separate entry of the source. Read-outs that look alike come from different tables or passages of the source.

Columns and labels:
[1] = test system: ivacaftor metabolism in rat liver microsomes (RLM); assay: Screening of 79 drugs (100 μM) for inhibition of ivacaftor metabolism in RLM incubation; format: in vitro ADME; settings: each drug 100 μM, 0.3 mg/mL RLM
Procedure: The supernatants were centrifuged at 100,000 × g for 1 h, and the pellets were resuspended with cold […] PBS. Protein concentrations were determined by Bradford Protein Assay Kit (Thermo Scientific, Waltham, MA, United States).
This system was made up of 200 μL of incubation solution consisting of 0.3 mg/mL RLM or 0.4 mg/mL HLM, 1.0 mM NADPH, pH 7.4 PBS and ivacaftor. […] The solution should be pre-incubated at 37°C for 5 min before adding NADPH. Following the addition of NADPH, the mixture should be incubated for 40 min. The reaction should then be stopped at −80°C. After the enzyme reaction was completed, 20 μL of 500 ng/mL IS solution and 400 μL acetonitrile (protein precipitating agent) were added to the mixture. The mixture was vortexed for 2 min and then centrifuged at 13,000 rpm for 10 min. After centrifugation, 100 μL of the supernatant was quantified using UPLC-MS/MS.
Each drug was used at a concentration of 100 μM as the inhibitor. The culture system was 200 μL and included 0.3 mg/mL RLM, 1.0 mM NADPH, PBS, ivacaftor, and inhibitor. The reaction procedure was the same as the enzyme reaction mentioned above Section 2.2.

[2] = target: ivacaftor metabolism in rat liver microsomes (RLM); assay: IC50 and inhibition mechanism (Lineweaver-Burk, Ki, αKi) on ivacaftor metabolism in RLM; format: in vitro ADME; settings: for IC50: ivacaftor 8.8 μM; for Inhibition type: Lineweaver-Burk plots
Procedure: (§1) This system was made up of 200 μL of incubation solution consisting of 0.3 mg/mL RLM or 0.4 mg/mL HLM, 1.0 mM NADPH, pH 7.4 PBS and ivacaftor. […] In HLM, a range of concentrations (0.1, 1, 2, 4, 12, 25 μM) of ivacaftor was used to determine Km. The solution should be pre-incubated at 37°C for 5 min before adding NADPH. Following the addition of NADPH, the mixture should be incubated for 40 min. The reaction should then be stopped at −80°C. After the enzyme reaction was completed, 20 μL of 500 ng/mL IS solution and 400 μL acetonitrile (protein precipitating agent) were added to the mixture. The mixture was vortexed for 2 min and then centrifuged at 13,000 rpm for 10 min. After centrifugation, 100 μL of the supernatant was quantified using UPLC-MS/MS.
(§2) The IC50 values for the inhibitory effects of nisoldipine and nimodipine on ivacaftor in HLM were also determined. […] The final concentration of DMSO in the culture system is less than 1%. […] The incubation and post-treatment procedures were consistent with the enzyme incubation of ivacaftor described above Section 2.2.
(§3) The incubation and post-treatment procedures were consistent with the enzyme incubation of ivacaftor described above Section 2.2.
(§4) Km values, IC50 values, Lineweaver-Burk plots and mean plasma concentration-time curves were all generated using GraphPad Prism 9.0 software (GraphPad Software, Inc., United States). Pharmacokinetic parameters of ivacaftor and M1 were obtained by analyzing them using the non-compartmental model of Drug and Statistics (DAS) (version 3.0, Mathematical Pharmacology Professional Committee of China, Shanghai, China), and a one-way ANOVA was performed to compare the pharmacokinetics of the three groups of rats using SPSS (version 26.0; SPSS Inc., Chicago, IL, United States). A P-value <0.05 was considered statistically significant. Data were represented as mean ± standard deviation (SD).

[3] = target: ivacaftor metabolism in human liver microsomes (HLM); assay: IC50 and inhibition mechanism (Lineweaver-Burk, Ki, αKi) on ivacaftor metabolism in HLM; format: in vitro ADME; settings: for Inhibition type: Lineweaver-Burk plots; for IC50: ivacaftor 6.8 μM
Procedure: as §1, §2, §3, §4

CYP3A = settings: strong CYP3A inhibitor co-administered; FDA report; ref Garg et al., 2019; cited from earlier work

Compound	Metabolic rate (Mean ± SD, % of control) [1]	further results
CCOC(=O)C1=C(C)NC(C)=C(C(=O)OCC)C1c1ccccc1/C=C/C(=O)OC(C)(C)C [Lacidipine]	14.13 ± 1.07 % of control	IC50 [2]: 2.17 µM
COCCOC(=O)C1=C(C)NC(C)=C(C(=O)OC(C)C)C1c1cccc([N+](=O)[O-])c1 (stereo not shown) [Nimodipine]	7.84 ± 0.43 % of control	Ki [3]: 5.87 µM; Inhibition type [3]: Competitive inhibition; IC50 [3]: 7.15 µM; IC50 ([3]; listed as nimodipine): < 10 µM; Ki [2]: 3.26 µM; Inhibition type [2]: Competitive inhibition; IC50 [2]: 4.57 µM; IC50 ([2]; listed as nimodipine): < 10 µM
CC(=O)N1CCN(c2ccc(OCC3COC(Cn4ccnc4)(c4ccc(Cl)cc4Cl)O3)cc2)CC1 (stereo not shown) [ketoconazole]	–	increase in AUC of ivacaftor when combined with the inhibitor (CYP3A): 8.5 fold
CCOC(=O)C1=C(C)NC(C)=C(C(=O)OC)C1c1cccc(Cl)c1Cl (stereo not shown) [Felodipine]	13.47 ± 1.71 % of control	IC50 [2]: 15.6 µM
CN1C(C(=O)Nc2ccccn2)=C(O)c2sc(Cl)cc2S1(=O)=O [Lornoxicam]	79.39 ± 3.06 % of control	–
O=c1c(-c2ccc(O)cc2)coc2cc(O)cc(O)c12 [Genistein]	50.39 ± 12.01 % of control	–
O=C1C[C@@H](c2ccc(O)cc2)Oc2cc(O)cc(O)c21 [Naringenin]	42.57 ± 2.14 % of control	–
O=C(O)Cc1ccc(O)cc1 [2-(4-Hydroxyphenyl) acetic acid]	101.32 ± 0.94 % of control	–
COC(=O)C1=C(C)NC(C)=C(C(=O)OCC(C)C)C1c1ccccc1[N+](=O)[O-] (stereo not shown) [Nisoldipine]	7.29 ± 4.05 % of control	Ki [3]: 3.92 µM; α [3]: 9.03; Inhibition type [3]: Non-competitive inhibition and competitive inhibition; Inhibition type ([3]; listed as nisoldipine): mixed inhibition; also recorded: mixed-type of non-competitive and competitive inhibition; IC50 [3]: 9.1 µM; IC50 ([3]; listed as nisoldipine): < 10 µM; α ([3]; listed as nisoldipine): 35.40; Ki [2]: 3.35 µM; α [2]: 2.53; Inhibition type [2]: Non-competitive inhibition and competitive inhibition; Inhibition type ([2]; listed as nisoldipine): mixed inhibition; also recorded: mixed-type of non-competitive and competitive inhibition; IC50 [2]: 6.55 µM; IC50 ([2]; listed as nisoldipine): < 10 µM; α ([2]; listed as nisoldipine): 8.48
N[C@@H](CC(=O)N1CCn2c(nnc2C(F)(F)F)C1)Cc1cc(F)c(F)cc1F [Sitagliptin]	97.11 ± 2.13 % of control	–
COc1cc(C2Oc3cc([C@H]4Oc5cc(O)cc(O)c5C(=O)[C@@H]4O)ccc3OC2CO)ccc1O (stereo partly shown) [Silibinin]	54.73 ± 1.11 % of control	–
COc1ccccc1Oc1c(NS(=O)(=O)c2ccc(C(C)(C)C)cc2)nc(-c2ncccn2)nc1OCCO [Bosentan]	131.49 ± 2.21 % of control	–
O=c1cc(-c2ccc(O)cc2)oc2cc(O)cc(O)c12 [Apigenin]	58.35 ± 2.14 % of control	–
C=C1CC[C@@H]2[C@](C)(CO)[C@H](O)CC[C@@]2(C)[C@@H]1C/C=C1/C(=O)OC[C@H]1O [Andrographolide]	81.58 ± 1.22 % of control	–
C[N+](C)(C)CC(=O)O [Betaine]	100.10 ± 4.97 % of control	–
O=C(O)[C@H]1O[C@@H](Oc2cc3oc(-c4ccccc4)cc(=O)c3c(O)c2O)[C@H](O)[C@@H](O)[C@@H]1O [Baicalin]	50.95 ± 0.08 % of control	–

Compound	Metabolic rate (Mean ± SD, % of control) [1]	further results
O=c1cc(-c2ccccc2)oc2cc(O)c(O)c(O)c12 [Baicalein]	15.24 ± 0.00 % of control	–
CCC(C)n1ncn(-c2ccc(N3CCN(c4ccc(OCC5COC(Cn6cncn6)(c6ccc(Cl)cc6Cl)O5)cc4)CC3)cc2)c1=O (stereo not shown) [itraconazole]	–	increase in AUC of ivacaftor when combined with the inhibitor (CYP3A): 15.6 fold
Oc1cc(O)c2c(c1)O[C@H](c1ccc(O)c(O)c1)[C@H](O)C2 [Epicatechin]	100.31 ± 2.66 % of control	–
COc1ccc2cc1Oc1ccc(cc1)C[C@H]1c3cc(c(OC)cc3CCN1C)Oc1c(O)c(OC)cc3c1[C@H](C2)N(C)CC3 [Fangchinoline]	29.41 ± 4.61 % of control	–
O=c1c(O)c(-c2ccc(O)c(O)c2)oc2cc(O)ccc12 [Fisetin]	44.37 ± 1.28 % of control	–
COc1ccc([C@@H]2CC(=O)c3c(O)cc(O)cc3O2)cc1O [Hesperetin]	31.12 ± 2.75 % of control	–
O=C1C=CC[C@@H]2[C@H]3CCCN4CCC[C@@H](CN12)[C@@H]34 [Sophocarpine]	93.46 ± 2.14 % of control	–
CCCCc1oc2ccc(NS(C)(=O)=O)cc2c1C(=O)c1ccc(OCCCN(CCCC)CCCC)cc1 [Dronedarone]	4.76 ± 0.94 % of control	–
COc1ccc2cc1Oc1ccc(cc1)C[C@H]1c3cc(c(OC)cc3CCN1C)Oc1c(OC)c(OC)cc3c1[C@H](C2)N(C)CC3 [Tetrandrine]	71.96 ± 16.27 % of control	–
Cc1cccc(C)c1OCC(C)N (stereo not shown) [Mexiletine]	95.32 ± 2.42 % of control	–
[H]/N=C(/N)c1ccc(NCc2nc3cc(C(=O)N(CCC(=O)O)c4ccccn4)ccc3n2C)cc1 [Dabigatran]	104.42 ± 27.66 % of control	–
CC1(C)O[C@H]2CC(=O)OC[C@]23[C@H]2CC[C@@]4(C)[C@H](c5ccoc5)OC(=O)[C@H]5O[C@]54[C@]2(C)C(=O)C[C@@H]13 [Limonin]	19.90 ± 0.36 % of control	–
CCC1=C(C)CN(C(=O)NCCc2ccc(S(=O)(=O)NC(=O)N[C@H]3CC[C@H](C)CC3)cc2)C1=O [Glimepiride]	36.97 ± 1.02 % of control	–
CC(C)n1c(=O)cc(N[C@@H](C)c2ccccc2)[nH]c1=O [mavacamten]	94.17 ± 0.21 % of control	–
O=C1CCC[C@@H]2[C@H]3CCCN4CCC[C@@H](CN12)[C@@H]34 [Matrine]	80.23 ± 12.45 % of control	–
